# Measurements from patent publication US9157077B2, “Aminopyrimidine kinase inhibitors” (Jasco Pharmaceuticals, LLC, priority 2009, dated 2015).
# Read-outs that look alike come from different tables or passages of the source.
# Tests used:
# [1] = Hepatic microsomal stability, rat; format: in vitro ADME, rat (Sprague-Dawley)
# Method: (§1) Hepatic microsomal assays were performed with 4981, 4985, 4991 and 4999 in human and rat (Sprague-Dawley). Protein concentrations of 0.4 (human) and 0.2 mg/mL (rat) with an NADPH regenerating cofactor system (2.6 mM NADP+, 6.6 mM glucose-6-phosphate, 0.8 U/mL glucose-6-phosphate dehydrogenase, and 6.6 mM magnesium chloride) were used. A 100 μM 20% DMSO/80% acetonitrile working stock of each of the compounds was diluted 100 fold resulting in 1 μM compound/1% final organic reaction concentrations. Time points were removed at 0 and 60 minutes. At each time point, 100 μL of the incubation suspension was added to 200 μL of acetonitrile containing internal standard (tolbutamide), followed by centrifugation at 3,220 rcf for 10 minutes. Two hundred (200)μL of the resulting supernatants were removed, dried under nitrogen and reconstituted in 100 μL of 2 mM ammonium acetate, 0.1% formic acid in 50% methanol prior to analysis by LC/MS/MS. Testosterone and dexamethasone were used as reference compounds.
# [2] = Hepatic microsomal stability, human; format: in vitro ADME
# Method: as §1
# [3] = molecular target: Enzyme (kinases of Table 29) (Homo sapiens, UniProt P78368); assay: Percent Activity of Enzyme When Treated with 300 nM of Compound (ATP present at Km of enzyme), Table 29; format: biochemical; settings: CK1γ2(h)
# Sequence of Enzyme (kinases of Table 29) (Homo sapiens, UniProt P78368) (P78368 whole entry): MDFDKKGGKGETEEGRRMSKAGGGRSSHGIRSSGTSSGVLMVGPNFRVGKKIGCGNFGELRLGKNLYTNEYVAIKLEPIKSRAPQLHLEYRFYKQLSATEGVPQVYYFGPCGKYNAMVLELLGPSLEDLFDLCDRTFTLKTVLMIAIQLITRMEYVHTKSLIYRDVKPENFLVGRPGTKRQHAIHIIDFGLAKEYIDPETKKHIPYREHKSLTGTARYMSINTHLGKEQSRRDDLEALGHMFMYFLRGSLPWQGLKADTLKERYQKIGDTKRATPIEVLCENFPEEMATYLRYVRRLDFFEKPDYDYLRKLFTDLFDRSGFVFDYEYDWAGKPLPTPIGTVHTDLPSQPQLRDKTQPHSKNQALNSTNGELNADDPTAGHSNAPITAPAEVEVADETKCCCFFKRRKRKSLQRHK
# [4] = test system: Enzyme (kinases of Table 29); assay: as above; format: biochemical
# [5] = molecular target: Enzyme (kinases of Table 30); assay: IC50 of Compound (nM) (ATP present at Km of enzyme), Table 30; format: biochemical; settings: ATP present at Km of enzyme
# [6] = PAMPA, 5 h, 10 μM, pH 7.4
# Method: The target concentration in the assay was 10 μM, prepared by diluting (1000-fold) the 10 mM stock solutions in DMSO into PBS, pH 7.4. The final DMSO concentration was 0.1%. The 10 μM solutions were added, 300 μL, to wells in the donor plate. The receiver plate, which contained 200 μL of PBS, pH 7.4 per well, was placed in the donor plate and the assembly was incubated for 5 hours at ambient temperature. At the end of the incubation period the plates were separated and the compound concentrations in each solution were determined by LC/MS/MS. The assay was performed in triplicate.
# Where: • C0 is the initial concentration in the donor well (μM) • CD(t) is the concentration in the donor well after incubation (μM) • CA(t) is the concentration in the acceptor well after incubation (μM) • VD is the volume in the donor well (0.3 mL) • VA is the volume in the acceptor well (0.2 mL) • CE is (CD(t)VD+CA(t)VA)/(VD+VA) • A is the filter area (0.3 cm2) • t is the incubation time (18,000 s).
smiles,measurement,setting,value
C[C@]12CC[C@H]3[C@@H](CCC4=CC(=O)CC[C@@]43C)[C@@H]1CC[C@@H]2O [Testosterone],"% remaining after incubation, Rat Microsomes","[1]; 1 μM compound, 0.2 mg/mL protein, NADPH regenerating system, 60 minutes",0.6%
same,"% remaining after incubation, Human Microsomes","[2]; 1 μM compound, 0.4 mg/mL protein, NADPH regenerating system, 60 minutes",42%
"CN(C)CCOc1cc(/C=C2\SC(=O)NC2=O)nc(N2CCN(S(=O)(=O)c3ccccc3)CC2)n1 [compound 214, (Z)-5-((6-(2-(dimethylamino)ethoxy)-2-(4-(phenylsulfonyl)piperazin-1-yl)pyrimidin-4-yl)methylene)thiazolidine-2,4-dione]","Percent Activity of Enzyme, CK1γ2(h)",[3],41%
same,"Percent Activity of Enzyme, CK1(y)",[4]; CK1(y),79%
same,"Percent Activity of Enzyme, CK2(h)",[4]; CK2(h),77%
same,"Percent Activity of Enzyme, Pim-1(h)",[4]; Pim-1(h),25%
same,"Percent Activity of Enzyme, Pim-2(h)",[4]; Pim-2(h),13%
same,"Percent Activity of Enzyme, Pim-3(h)",[4]; Pim-3(h),16%
same,IC50,"[5]; Pim-1(h), read-out: IC50 of Compound, Pim-1(h)",0.095 µM
same,IC50,"[5]; Pim-2(h), read-out: IC50 of Compound, Pim-2(h)",0.035 µM
same,IC50,"[5]; Pim-3(h), read-out: IC50 of Compound, Pim-3(h)",0.06 µM
C[C@@H]1C[C@H]2[C@@H]3CCC4=CC(=O)C=C[C@]4(C)[C@@]3(F)[C@@H](O)C[C@]2(C)[C@@]1(O)C(=O)CO [Dexamethasone],"% remaining after incubation, Rat Microsomes","[1]; Sprague-Dawley, rat, microsomes, 1 h, 1 μM",91%
same,Mass Retention R,[6],9%
same,"% remaining after incubation, Human Microsomes","[2]; human, microsomes, 1 h, 1 μM",85%
